# Measurements as given in PubChem BioAssay (NCI).
#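 GI50: concentration for 50% inhibition of growth. TGI denotes the concentration required for complete inhibition of growth.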
# How the values were obtained:
# Assay in all cases: DTP human tumour cell line panel, 384-well format
# 786-0 renal = test system: 786-0 renal
# A498 renal = test system: A498 renal
# A549 NSCLC = test system: A549 NSCLC
# ACHN renal = test system: ACHN renal
# BT-549 breast = test system: BT-549 breast
# CAKI-1 renal = test system: CAKI-1 renal
# CCRF-CEM leukemia = test system: CCRF-CEM leukemia
# COLO 205 colon = test system: COLO 205 colon
# DU-145 prostate = test system: DU-145 prostate
# EKVX NSCLC = test system: EKVX NSCLC
# HCC-2998 colon = test system: HCC-2998 colon
# HCT-116 colon = test system: HCT-116 colon
# HCT-15 colon = test system: HCT-15 colon
# HL-60(TB) leukemia = test system: HL-60(TB) leukemia
# HOP-62 NSCLC = test system: HOP-62 NSCLC
# HOP-92 NSCLC = test system: HOP-92 NSCLC
# HS 578T breast = test system: HS 578T breast
# HT29 colon = test system: HT29 colon
# IGROV1 ovarian = test system: IGROV1 ovarian
# KM12 colon = test system: KM12 colon
# LOX IMVI melanoma = test system: LOX IMVI melanoma
# M14 melanoma = test system: M14 melanoma
# MALME-3M melanoma = test system: MALME-3M melanoma
# MCF7 breast = test system: MCF7 breast
# MDA-MB-231 breast = test system: MDA-MB-231 breast
# MDA-MB-435 melanoma = test system: MDA-MB-435 melanoma
# MDA-MB-468 breast = test system: MDA-MB-468 breast
# MOLT-4 leukemia = test system: MOLT-4 leukemia
# NCI-H226 lung = test system: NCI-H226 lung
# NCI-H23 lung = test system: NCI-H23 lung
# NCI-H322M lung = test system: NCI-H322M lung
# NCI-H460 NSCLC = test system: NCI-H460 NSCLC
# NCI-H522 lung = test system: NCI-H522 lung
# NCI/ADR-RES ovarian = test system: NCI/ADR-RES ovarian
# OVCAR-3 ovarian = test system: OVCAR-3 ovarian
# OVCAR-4 ovarian = test system: OVCAR-4 ovarian
# OVCAR-5 ovarian = test system: OVCAR-5 ovarian
# OVCAR-8 ovarian = test system: OVCAR-8 ovarian
# PC-3 prostate = test system: PC-3 prostate
# RPMI-8226 leukemia = test system: RPMI-8226 leukemia
# RXF 393 renal = test system: RXF 393 renal
# SF-268 CNS = test system: SF-268 CNS
# SF-295 CNS = test system: SF-295 CNS
# SF-539 CNS = test system: SF-539 CNS
# SK-MEL-28 melanoma = test system: SK-MEL-28 melanoma
# SK-MEL-5 melanoma = test system: SK-MEL-5 melanoma
# SK-OV-3 ovarian = test system: SK-OV-3 ovarian
# SN12C renal = test system: SN12C renal
# SNB-19 CNS = test system: SNB-19 CNS
# SNB-75 CNS = test system: SNB-75 CNS
# SR leukemia = test system: SR leukemia
# SW-620 colon = test system: SW-620 colon
# T-47D breast = test system: T-47D breast
# TK-10 renal = test system: TK-10 renal
# U251 glioblastoma = test system: U251 glioblastoma
# UACC-257 melanoma = test system: UACC-257 melanoma
# UACC-62 melanoma = test system: UACC-62 melanoma
# UO-31 renal = test system: UO-31 renal
smiles,measurement,setting,value
CS(=O)(=O)c1ccc(Oc2cc(F)cc(C#N)c2)c2c1[C@H](O)[C@H](F)[C@@H]2F,GI50,786-0 renal,> 100 µM
same,TGI,786-0 renal,> 100 µM
same,GI50,A498 renal,> 100 µM
same,TGI,A498 renal,> 100 µM
same,GI50,A549 NSCLC,> 100 µM
same,TGI,A549 NSCLC,> 100 µM
same,GI50,ACHN renal,> 100 µM
same,TGI,ACHN renal,> 100 µM
same,GI50,BT-549 breast,> 100 µM
same,TGI,BT-549 breast,> 100 µM
same,GI50,CAKI-1 renal,> 100 µM
same,TGI,CAKI-1 renal,> 100 µM
same,GI50,CCRF-CEM leukemia,> 100 µM
same,TGI,CCRF-CEM leukemia,> 100 µM
same,GI50,COLO 205 colon,> 100 µM
same,TGI,COLO 205 colon,> 100 µM
same,GI50,DU-145 prostate,> 100 µM
same,TGI,DU-145 prostate,> 100 µM
same,GI50,EKVX NSCLC,> 100 µM
same,TGI,EKVX NSCLC,> 100 µM
same,GI50,HCC-2998 colon,> 100 µM
same,TGI,HCC-2998 colon,> 100 µM
same,GI50,HCT-116 colon,> 100 µM
same,TGI,HCT-116 colon,> 100 µM
same,GI50,HCT-15 colon,> 100 µM
same,TGI,HCT-15 colon,> 100 µM
same,GI50,HL-60(TB) leukemia,> 100 µM
same,TGI,HL-60(TB) leukemia,> 100 µM
same,GI50,HOP-62 NSCLC,> 100 µM
same,TGI,HOP-62 NSCLC,> 100 µM
same,GI50,HOP-92 NSCLC,> 100 µM
same,TGI,HOP-92 NSCLC,> 100 µM
same,GI50,HS 578T breast,> 100 µM
same,TGI,HS 578T breast,> 100 µM
same,GI50,HT29 colon,> 100 µM
same,TGI,HT29 colon,> 100 µM
same,GI50,IGROV1 ovarian,> 100 µM
same,TGI,IGROV1 ovarian,> 100 µM
same,GI50,KM12 colon,> 100 µM
same,TGI,KM12 colon,> 100 µM
same,GI50,LOX IMVI melanoma,> 100 µM
same,TGI,LOX IMVI melanoma,> 100 µM
same,GI50,M14 melanoma,> 100 µM
same,TGI,M14 melanoma,> 100 µM
same,GI50,MALME-3M melanoma,> 100 µM
same,TGI,MALME-3M melanoma,> 100 µM
same,GI50,MCF7 breast,> 100 µM
same,TGI,MCF7 breast,> 100 µM
same,GI50,MDA-MB-231 breast,> 100 µM
same,TGI,MDA-MB-231 breast,> 100 µM
same,GI50,MDA-MB-435 melanoma,> 100 µM
same,TGI,MDA-MB-435 melanoma,> 100 µM
same,GI50,MDA-MB-468 breast,> 100 µM
same,TGI,MDA-MB-468 breast,> 100 µM
same,GI50,MOLT-4 leukemia,> 100 µM
same,TGI,MOLT-4 leukemia,> 100 µM
same,GI50,NCI-H226 lung,> 100 µM
same,TGI,NCI-H226 lung,> 100 µM
same,GI50,NCI-H23 lung,> 100 µM
same,TGI,NCI-H23 lung,> 100 µM
same,GI50,NCI-H322M lung,> 100 µM
same,TGI,NCI-H322M lung,> 100 µM
same,GI50,NCI-H460 NSCLC,> 100 µM
same,TGI,NCI-H460 NSCLC,> 100 µM
same,GI50,NCI-H522 lung,> 100 µM
same,TGI,NCI-H522 lung,> 100 µM
same,GI50,NCI/ADR-RES ovarian,> 100 µM
same,TGI,NCI/ADR-RES ovarian,> 100 µM
same,GI50,OVCAR-3 ovarian,> 100 µM
same,TGI,OVCAR-3 ovarian,> 100 µM
same,GI50,OVCAR-4 ovarian,> 100 µM
same,TGI,OVCAR-4 ovarian,> 100 µM
same,GI50,OVCAR-5 ovarian,> 100 µM
same,TGI,OVCAR-5 ovarian,> 100 µM
same,GI50,OVCAR-8 ovarian,> 100 µM
same,TGI,OVCAR-8 ovarian,> 100 µM
same,GI50,PC-3 prostate,> 100 µM
same,TGI,PC-3 prostate,> 100 µM
same,GI50,RPMI-8226 leukemia,> 100 µM
same,TGI,RPMI-8226 leukemia,> 100 µM
same,GI50,RXF 393 renal,> 100 µM
same,TGI,RXF 393 renal,> 100 µM
same,GI50,SF-268 CNS,> 100 µM
same,TGI,SF-268 CNS,> 100 µM
same,GI50,SF-295 CNS,> 100 µM
same,TGI,SF-295 CNS,> 100 µM
same,GI50,SF-539 CNS,> 100 µM
same,TGI,SF-539 CNS,> 100 µM
same,GI50,SK-MEL-28 melanoma,> 100 µM
same,TGI,SK-MEL-28 melanoma,> 100 µM
same,GI50,SK-MEL-5 melanoma,> 100 µM
same,TGI,SK-MEL-5 melanoma,> 100 µM
same,GI50,SK-OV-3 ovarian,> 100 µM
same,TGI,SK-OV-3 ovarian,> 100 µM
same,GI50,SN12C renal,> 100 µM
same,TGI,SN12C renal,> 100 µM
same,GI50,SNB-19 CNS,> 100 µM
same,TGI,SNB-19 CNS,> 100 µM
same,GI50,SNB-75 CNS,> 100 µM
same,TGI,SNB-75 CNS,> 100 µM
same,GI50,SR leukemia,> 100 µM
same,TGI,SR leukemia,> 100 µM
same,GI50,SW-620 colon,> 100 µM
same,TGI,SW-620 colon,> 100 µM
same,GI50,T-47D breast,> 100 µM
same,TGI,T-47D breast,> 100 µM
same,GI50,TK-10 renal,> 100 µM
same,TGI,TK-10 renal,> 100 µM
same,GI50,U251 glioblastoma,> 100 µM
same,TGI,U251 glioblastoma,> 100 µM
same,GI50,UACC-257 melanoma,> 100 µM
same,TGI,UACC-257 melanoma,> 100 µM
same,GI50,UACC-62 melanoma,> 100 µM
same,TGI,UACC-62 melanoma,> 100 µM
same,GI50,UO-31 renal,> 100 µM
same,TGI,UO-31 renal,> 100 µM
